pEC50, pIC50: −log10 of the molar value. Where a name gives a salt, the structure may show the parent alone.
How the values were obtained:
human 5-HT1A receptor [1] = target: T1, human 5-HT1A receptor (Homo sapiens, UniProt P08908); test: Agonist activity: reversal of forskolin stimulation of cAMP; assay type: cell-based; settings: reversal of forskolin-stimulated cAMP; CHO cells stably transfected with the human 5-HT1A receptor; RIA
T1 construct: expressed in transfected cells; host or cells: CHO cells (stably transfected)
T1 sequence (P08908 1-422): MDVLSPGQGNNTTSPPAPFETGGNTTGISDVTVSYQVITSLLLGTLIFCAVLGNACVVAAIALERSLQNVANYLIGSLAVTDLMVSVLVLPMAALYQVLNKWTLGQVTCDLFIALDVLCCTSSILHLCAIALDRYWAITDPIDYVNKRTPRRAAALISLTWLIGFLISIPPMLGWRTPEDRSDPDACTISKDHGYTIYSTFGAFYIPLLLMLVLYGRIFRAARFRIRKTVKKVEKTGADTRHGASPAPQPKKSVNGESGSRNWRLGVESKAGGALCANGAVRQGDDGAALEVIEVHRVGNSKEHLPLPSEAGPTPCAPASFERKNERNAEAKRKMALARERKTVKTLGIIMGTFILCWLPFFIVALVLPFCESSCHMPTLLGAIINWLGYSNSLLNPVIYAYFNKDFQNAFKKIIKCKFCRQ
Description: EC50 values are determined for the active test compounds. Stably transfected CHO cells were grown in DMEM containing 10% heat inactivated FBS and non-essential amino acids. The cells are plated at a density of […] per well in a 24 well plate and incubated for 2 days in a CO2 incubator. On the second day, the media is replaced with 0.5 mL treatment buffer (DMEM+25 mM HEPES, 5 mM theophylline, 10 mM pargyline) and incubated for 10 minutes at 37° C. Wells are treated with forskolin ([…]) followed immediately by the test compound ([…] for initial screen) and incubated for an additional 10 minutes at 37° C. The reaction is terminated by removal of the media and addition of 0.5 mL ice cold assay buffer (supplied in the RIA kit). Plates are stored at −20° C. prior to assessment of cAMP formation by RIA.

human 5-HT1A receptor [2] = target: T1, human 5-HT1A receptor; test: 5-HT1A affinity: displacement of [3H] 8-OHDPAT; assay type: binding; settings: CHO cells stably transfected with the human 5-HT1A receptor
Text: Affinity for the serotonin 5-HT1A receptor was established by assaying the test compound's ability to displace [^3H] 8-OHDPAT from its binding site on the receptor complex in CHO cells stably transfected with the human 5-HT1A receptor following the procedure described by J. Dunlop, Y. Zhang, D. Smith and L. Schechter (Eur. J. Pharmacol., submitted; variation of a procedure described by J. Zgombick et al., Naunyn-Schmiedeberg's Arch. Pharmacol., 354, 226–236 (1996)).

human 5-HT1A receptor [3] = target: T1, human 5-HT1A receptor; test: Antagonist activity: forskolin-stimulated cAMP turnover; assay type: cell-based; settings: CHO cells stably transfected with the human 5-HT1A receptor, compounds with no agonist activity (Emax=0%)
Text: Compounds shown to have no agonist activity (Emax=0%) are further analyzed to determine antagonist activity, as measured by the test compound's ability to inhibit forskolin-stimulated cAMP turnover in CHO cells stably transfected with the human 5-HT1A receptor using a procedure described by J. Dunlop, Y. Zhang, D. Smith and L. Schechter [Eur. J. Pharmacol., submitted; variation of a procedure described by J. Zgombick et al., Naunyn-Schmiedeberg's Arch. Pharmacol., 354, 226–236 (1996)].

Question: Which results are given for `COc1ccccc1N1CCN(C[C@@H](Cc2ccncc2)NC(=O)C2CCCCC2)CC1` [Example 9, (R)-Cyclohexanecarboxylic acid {2-[4-(2-methoxy-phenyl)-piperazin-1-yl]-1-pyridin-4-ylmethyl-ethyl}-amide]?
Answer: pEC50 (human 5-HT1A receptor [1]): 6.85; pIC50 (human 5-HT1A receptor [2]): 9.25

Question: With `COc1ccccc1N1CCN(C[C@@H](Cc2cccnc2)NC(=O)C2(C)CCCCC2)CC1` [Example 5, (R)-1-Methyl-cyclohexanecarboxylic acid {2-[4-(2-methoxy-phenyl)-piperazin-1-yl]-1-pyridin-3-ylmethyl-ethyl}-amide] as the compound, how does the pIC50 (human 5-HT1A receptor [3]) read?
Answer: 7.88

Question: What about the pIC50 (human 5-HT1A receptor [2]) of the same compound?
Answer: 9.06

Question: Which melting point does the source give for `COc1ccccc1N1CCN(C[C@@H](Cc2ccncc2)NC(=O)C2CCCCC2)CC1` (as salt: maleate) [Example 9, (R)-Cyclohexanecarboxylic acid {2-[4-(2-methoxy-phenyl)-piperazin-1-yl]-1-pyridin-4-ylmethyl-ethyl}-amide] here?
Answer: 145 to 147 °C

Question: With `CC1(C(=O)N[C@H](Cc2cccnc2)CN2CCN(c3cccc4c3OCCO4)CC2)CCCCC1` [Example 22, 1-Methyl-cyclohexanecarboxylic acid {(1R)-2-[4-(2,3-dihydro-benzo[1,4]dioxin-5-yl)-piperazin-1-yl]-1-pyridin-3-ylmethyl-ethyl}-amide] as the compound, how does the pEC50 (human 5-HT1A receptor [1]) read?
Answer: 7.99

Question: And the pIC50 (human 5-HT1A receptor [2])?
Answer: 8.59

Question: With `COc1ccccc1N1CCN(C[C@@H](Cc2ccccn2)N(C)C(=O)C2(C)CCCCC2)CC1` [Example 18, 1-Methyl-cyclohexanecarboxylic acid {(1R)-2-[4-(2-methoxy-phenyl)-piperazin-1-yl]-1-pyridin-2-ylmethyl-ethyl}-methyl-amide] as the compound, how does the pIC50 (human 5-HT1A receptor [3]) read?
Answer: 6.88

Question: What about the pIC50 (human 5-HT1A receptor [2]) of the same compound?
Answer: 8.52

Question: With `COc1ccccc1N1CCN(C[C@@H](Cc2cccnc2)NC(=O)C2CCCCC2)CC1` (as salt: maleate) [Example 4, (R)-Cyclohexanecarboxylic acid {2-[4-(2-methoxy-phenyl)-piperazin-1-yl]-1-pyridin-3-ylmethyl-ethyl}-amide] as the compound, how does the melting point read?
Answer: 112 to 115 °C

Question: Which melting point does the source give for `COc1ccccc1N1CCN(C[C@@H](Cc2ccccn2)N(C)C(=O)C2(C)CCCCC2)CC1` (as salt: fumarate) [Example 18, 1-Methyl-cyclohexanecarboxylic acid {(1R)-2-[4-(2-methoxy-phenyl)-piperazin-1-yl]-1-pyridin-2-ylmethyl-ethyl}-methyl-amide] here?
Answer: 145 to 146 °C

Question: With `COc1ccccc1N1CCN(C[C@@H](Cc2cccnc2)NC(=O)C2CCCCC2)CC1` [Example 4, (R)-Cyclohexanecarboxylic acid {2-[4-(2-methoxy-phenyl)-piperazin-1-yl]-1-pyridin-3-ylmethyl-ethyl}-amide] as the compound, how does the pEC50 (human 5-HT1A receptor [1]) read?
Answer: 7.69

Question: What about the pIC50 (human 5-HT1A receptor [2]) of the same compound?
Answer: 9.32

Question: For `CC1(C(=O)N[C@H](Cc2ccncc2)CN2CCN(c3cccc4c3OCCO4)CC2)CCCCC1` (as salt: hydrochloride) [Example 23, 1-Methyl-cyclohexanecarboxylic acid {(1R)-2-[4-(2,3-dihydro-benzo[1,4]dioxin-5-yl)-piperazin-1-yl]-1-pyridin-4-ylmethyl-ethyl}-amide], which melting point is on record?
Answer: 188 to 190 °C

Question: Which results are given for `CN(C(=O)C1CCCCC1)[C@H](Cc1ccncc1)CN1CCN(c2cccc3c2OCCO3)CC1` [Example 25, Cyclohexanecarboxylic acid {(1R)-2-[4-(2,3-dihydro-benzo[1,4]dioxin-5-yl)-piperazin-1-yl]-1-pyridin-4-ylmethyl-ethyl}-methyl-amide]?
Answer: pIC50 (human 5-HT1A receptor [3]): 6.94; pIC50 (human 5-HT1A receptor [2]): 8.42

Question: Which melting point does the source give for `CC1(C(=O)N[C@H](Cc2cccnc2)CN2CCN(c3cccc4c3OCCO4)CC2)CCCCC1` (as salt: hydrochloride) [Example 22, 1-Methyl-cyclohexanecarboxylic acid {(1R)-2-[4-(2,3-dihydro-benzo[1,4]dioxin-5-yl)-piperazin-1-yl]-1-pyridin-3-ylmethyl-ethyl}-amide] here?
Answer: 188 to 190 °C

Question: With `COc1ccccc1N1CCN(C[C@@H](Cc2ccncc2)NC(=O)C2(C)CCCCC2)CC1` (as salt: fumarate) [Example 10, (R)-1-Methyl-cyclohexanecarboxylic acid {2-[4-(2-methoxy-phenyl)-piperazin-1-yl]-1-pyridin-4-ylmethyl-ethyl}-amide] as the compound, how does the melting point read?
Answer: 145 °C

Question: With `CC1(C(=O)N[C@H](Cc2ccncc2)CN2CCN(c3cccc4c3OCCO4)CC2)CCCCC1` [Example 23, 1-Methyl-cyclohexanecarboxylic acid {(1R)-2-[4-(2,3-dihydro-benzo[1,4]dioxin-5-yl)-piperazin-1-yl]-1-pyridin-4-ylmethyl-ethyl}-amide] as the compound, how does the pEC50 (human 5-HT1A receptor [1]) read?
Answer: 6.97

Question: And the pIC50 (human 5-HT1A receptor [2])?
Answer: 8.95

Question: With `CN(C(=O)C1CCCCC1)[C@H](Cc1ccncc1)CN1CCN(c2cccc3c2OCCO3)CC1` (as salt: hydrochloride) [Example 25, Cyclohexanecarboxylic acid {(1R)-2-[4-(2,3-dihydro-benzo[1,4]dioxin-5-yl)-piperazin-1-yl]-1-pyridin-4-ylmethyl-ethyl}-methyl-amide] as the compound, how does the melting point read?
Answer: 167 to 170 °C

Question: Which melting point does the source give for `COc1ccccc1N1CCN(C[C@@H](Cc2ccccn2)NC(=O)C2CCCCC2)CC1` (as salt: fumarate) [Example 14, (R)-Cyclohexanecarboxylic acid {2-[4-(2-methoxy-phenyl)-piperazin-1-yl]-1-pyridin-2-ylmethyl-ethyl}-amide] here?
Answer: 136 to 141 °C

Question: With `COc1ccccc1N1CCN(C[C@@H](Cc2ccccn2)NC(=O)C2CCCCC2)CC1` [Example 14, (R)-Cyclohexanecarboxylic acid {2-[4-(2-methoxy-phenyl)-piperazin-1-yl]-1-pyridin-2-ylmethyl-ethyl}-amide] as the compound, how does the pEC50 (human 5-HT1A receptor [1]) read?
Answer: 7.28

Question: What about the pIC50 (human 5-HT1A receptor [2]) of the same compound?
Answer: 8.90

Question: Which melting point does the source give for `COc1ccccc1N1CCN(C[C@@H](Cc2cccnc2)NC(=O)C2(C)CCCCC2)CC1` (as salt: fumarate) [Example 5, (R)-1-Methyl-cyclohexanecarboxylic acid {2-[4-(2-methoxy-phenyl)-piperazin-1-yl]-1-pyridin-3-ylmethyl-ethyl}-amide] here?
Answer: 150 to 152 °C

Question: With `CN(C(=O)C1CCCCC1)[C@H](Cc1cccnc1)CN1CCN(c2cccc3c2OCCO3)CC1` [Example 24, Cyclohexanecarboxylic acid {(1R)-2-[4-(2,3-dihydro-benzo[1,4]dioxin-5-yl)-piperazin-1-yl]-1-pyridin-3-ylmethyl-ethyl}-methyl-amide] as the compound, how does the pIC50 (human 5-HT1A receptor [3]) read?
Answer: 7.11

Question: What about the pIC50 (human 5-HT1A receptor [2]) of the same compound?
Answer: 8.61

Question: With `COc1ccccc1N1CCN(C[C@@H](Cc2ccncc2)NC(=O)C2(C)CCCCC2)CC1` [Example 10, (R)-1-Methyl-cyclohexanecarboxylic acid {2-[4-(2-methoxy-phenyl)-piperazin-1-yl]-1-pyridin-4-ylmethyl-ethyl}-amide] as the compound, how does the pIC50 (human 5-HT1A receptor [3]) read?
Answer: 7.95

Question: What about the pIC50 (human 5-HT1A receptor [2]) of the same compound?
Answer: 9.14

Question: Which results are given for `COc1ccccc1N1CCN(C[C@@H](Cc2ccccn2)NC(=O)C2(C)CCCCC2)CC1` [Example 15, (R)-1-Methyl-cyclohexanecarboxylic acid {2-[4-(2-methoxy-phenyl)-piperazin-1-yl]-1-pyridin-2-ylmethyl-ethyl}-amide]?
Answer: pIC50 (human 5-HT1A receptor [3]): 8.35; pIC50 (human 5-HT1A receptor [2]): 9.13

Question: Which melting point does the source give for `COc1ccccc1N1CCN(C[C@@H](Cc2ccccn2)NC(=O)C2(C)CCCCC2)CC1` (as salt: fumarate) [Example 15, (R)-1-Methyl-cyclohexanecarboxylic acid {2-[4-(2-methoxy-phenyl)-piperazin-1-yl]-1-pyridin-2-ylmethyl-ethyl}-amide] here?
Answer: 135 to 139 °C

Question: For `CN(C(=O)C1CCCCC1)[C@H](Cc1cccnc1)CN1CCN(c2cccc3c2OCCO3)CC1` (as salt: hydrochloride) [Example 24, Cyclohexanecarboxylic acid {(1R)-2-[4-(2,3-dihydro-benzo[1,4]dioxin-5-yl)-piperazin-1-yl]-1-pyridin-3-ylmethyl-ethyl}-methyl-amide], which melting point is on record?
Answer: 167 to 170 °C

— patent US7067518B2, “Pyridinyl-methyl-ethyl cyclohexanecarboxamides as serotonergic agents” (Wyeth, priority 2002, dated 2006)
